According to patent US20180360790A1, “NUTRITIONAL COMPOSITIONS AND INFANT FORMULAS TO PROMOTE MYELINATION IN THE BRAIN” (NESTEC S.A., priority 2015, published 2018):

System: brain myelination (myelin water fraction)
Experiment: Cross-sectional correlation of infant formula nutrient composition with brain myelination (mcDESPOT MRI, general linear model)
Format: in vivo, infants and young children
Settings: single GLM of quantified formula nutrients and child age vs myelin water fraction; children up to 5 years; 5 most frequently used formulas
Description: This technique provides a quantitative measure, the Myelin Water Fraction (MWF), which is a surrogate marker of myelin content. When mapped as a function of time across early childhood, myelination trajectories can be generated. Infant formula composition: six infant formulas fed to infants participating in study were analyzed for their composition/level of myelin-relevant nutrients. […] Infants included in this study were drawn from a larger longitudinal study of normal brain and behavioral development: the Brown university Assessment of Myelination and Behavior Across Maturation (BAMBAM). To focus on neurotypical development, children with known potential risk factors for learning, neurologic, or psychiatric disorders were specifically excluded during recruitment and enrollment. […] Each infant was scanned using the mcDESPOT (multicomponent Driven Equilibrium Single Pulse Observation of T1 and T2) white matter imaging technique Deoni et al. (Magn. Reson. Med. 2008, 60:1372-1387), which provides a quantitative measure of the myelin water fraction (MWF) at each imaging point throughout the brain. […] Mean values for each region were then determined for each child and used for subsequent developmental analysis and trajectory modeling.

| Substance | nutritional drivers for myelination indicated by the final model |
| --- | --- |
| Iron | identified drivers |
| sphingomyelin | identified drivers |
